ChEMBL document CHEMBL1151171, “New biologically active triterpenoid saponins from Scabiosa tschiliensis” (J Nat Prod, 2004)
Active and inactive are the calls of the source. No cut-off for these calls is given here.

Legend:
[1] = target: T1, Pancreatic triacylglycerol lipase (Homo sapiens) (UniProt P16233); test: Inhibition of pancreatic lipase assessed as effect on oleic acid release from triolein at 1 mg/mL relative to control
T1 sequence (whole entry): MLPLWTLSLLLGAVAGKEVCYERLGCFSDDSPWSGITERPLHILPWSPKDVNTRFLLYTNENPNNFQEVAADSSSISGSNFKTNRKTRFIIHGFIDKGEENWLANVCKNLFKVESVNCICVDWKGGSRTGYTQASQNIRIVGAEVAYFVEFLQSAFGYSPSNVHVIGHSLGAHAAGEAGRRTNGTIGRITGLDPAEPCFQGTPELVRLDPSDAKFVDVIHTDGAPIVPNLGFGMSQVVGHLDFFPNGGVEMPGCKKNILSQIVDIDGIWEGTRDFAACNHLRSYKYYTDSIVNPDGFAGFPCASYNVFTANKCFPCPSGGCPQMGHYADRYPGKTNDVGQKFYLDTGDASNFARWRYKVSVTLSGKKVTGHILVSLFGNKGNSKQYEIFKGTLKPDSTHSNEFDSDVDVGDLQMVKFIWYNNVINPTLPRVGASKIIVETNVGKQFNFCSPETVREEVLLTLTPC

[2] = target: T1, Pancreatic triacylglycerol lipase (Homo sapiens); test: Inhibition of pancreatic lipase assessed as effect on oleic acid release from triolein at 0.005 mg/mL relative to control
[3] = target: T1, Pancreatic triacylglycerol lipase (Homo sapiens); test: Inhibition of pancreatic lipase assessed as effect on oleic acid release from triolein relative to control
[4] = target: T1, Pancreatic triacylglycerol lipase (Homo sapiens); test: Inhibition of pancreatic lipase assessed as effect on oleic acid release from triolein at 0.12 mg/mL relative to control

Activity [1] | SMILES | further results
Active | C[C@@H]1O[C@@H](O[C@H]2[C@H](O[C@H]3CC[C@]4(C)[C@H]5CC=C6[C@@H]7CC(C)(C)CC[C@]7(C(=O)O[C@@H]7O[C@H](CO[C@@H]8O[C@H](CO)[C@@H](O)[C@H](O)[C@H]8O)[C@@H](O)[C@H](O)[C@H]7O)CC[C@@]6(C)[C@]5(C)CC[C@H]4C3(C)C)OC[C@@H](O)[C@@H]2O)[C@H](O)[C@H](O[C@@H]2OC[C@@H](O)[C@H](O)[C@H]2O)[C@H]1O | 
Active | C[C@@H]1O[C@@H](O[C@H]2[C@H](O[C@H]3CC[C@]4(C)[C@H]5CC=C6[C@@H]7CC(C)(C)CC[C@]7(C(=O)O[C@@H]7O[C@H](CO[C@@H]8O[C@H](CO)[C@@H](O)[C@H](O)[C@H]8O)[C@@H](O)[C@H](O)[C@H]7O)CC[C@@]6(C)[C@]5(C)CC[C@H]4C3(C)C)OC[C@@H](O)[C@@H]2O)[C@H](O)[C@H](O[C@@H]2O[C@H](CO)[C@@H](O[C@@H]3O[C@H](CO)[C@@H](O)[C@H](O)[C@H]3O)[C@H](O)[C@H]2O)[C@H]1O | 
Active | C[C@@H]1O[C@@H](O[C@H]2[C@H](O[C@H]3CC[C@]4(C)[C@H]5CC=C6[C@H]7[C@](C(=O)O[C@@H]8O[C@H](CO[C@@H]9O[C@H](CO)[C@@H](O)[C@H](O)[C@H]9O)[C@@H](O)[C@H](O)[C@H]8O)(CC[C@@H](C)[C@@]7(C)O)CC[C@@]6(C)[C@]5(C)CC[C@H]4C3(C)C)OC[C@H](O)[C@@H]2O)[C@H](O)[C@H](O[C@@H]2O[C@H](CO)[C@@H](O)[C@H](O)[C@H]2O)[C@H]1O | 
Active | C[C@@H]1O[C@@H](O[C@H]2[C@H](O[C@H]3CC[C@]4(C)[C@H]5CC=C6[C@@H]7CC(C)(C)CC[C@]7(C(=O)O[C@@H]7O[C@H](CO[C@@H]8O[C@H](CO)[C@@H](O)[C@H](O)[C@H]8O)[C@@H](O)[C@H](O)[C@H]7O)CC[C@@]6(C)[C@]5(C)CC[C@H]4C3(C)C)OC[C@@H](O)[C@@H]2O)[C@H](O)[C@H](O[C@@H]2OC[C@@H](O[C@@H]3O[C@H](CO)[C@@H](O[C@@H]4OC[C@@H](O)[C@H](O)[C@H]4O)[C@H](O)[C@H]3O)[C@H](O)[C@H]2O)[C@H]1O | 
 | CCCCCCCCCCC[C@@H](C[C@@H]1OC(=O)[C@H]1CCCCCC)OC(=O)[C@H](CC(C)C)NC=O | Activity [2]: Active
Active | C[C@@H]1O[C@@H](O[C@H]2[C@H](O[C@H]3CC[C@]4(C)[C@H]5CC=C6[C@@H]7CC(C)(C)CC[C@]7(C(=O)O[C@@H]7O[C@H](CO[C@@H]8O[C@H](CO)[C@@H](O)[C@H](O)[C@H]8O)[C@@H](O)[C@H](O)[C@H]7O)CC[C@@]6(C)[C@]5(C)CC[C@H]4C3(C)C)OC[C@@H](O)[C@@H]2O)[C@H](O)[C@H](O[C@@H]2OC[C@@H](O[C@@H]3O[C@H](CO)[C@@H](O)[C@H](O)[C@H]3O)[C@H](O)[C@H]2O)[C@H]1O | 
Active | C[C@@H]1O[C@@H](O[C@H]2[C@H](O[C@H]3CC[C@]4(C)[C@H]5CC=C6[C@@H]7CC(C)(C)CC[C@]7(C(=O)O[C@@H]7O[C@H](CO[C@@H]8O[C@H](CO)[C@@H](O)[C@H](O)[C@H]8O)[C@@H](O)[C@H](O)[C@H]7O)CC[C@@]6(C)[C@]5(C)CC[C@H]4C3(C)C)OC[C@@H](O)[C@@H]2O)[C@H](O)[C@H](O[C@@H]2O[C@H](CO)[C@@H](O)[C@H](O)[C@H]2O)[C@H]1O | 
 | C[C@@H]1O[C@@H](O[C@H]2[C@H](O[C@H]3CC[C@]4(C)[C@H]5CC=C6[C@@H]7CC(C)(C)CC[C@]7(C(=O)O)CC[C@@]6(C)[C@]5(C)CC[C@H]4C3(C)C)OC[C@H](O)[C@@H]2O)[C@H](O)[C@H](O[C@@H]2OC[C@@H](O[C@@H]3O[C@H](CO)[C@@H](O)[C@H](O)[C@H]3O)[C@H](O)[C@H]2O)[C@H]1O | Activity [3]: Active; Activity [4]: Active
